This note sets out measurements from publication PMC12021911, “Comparative evaluation of antimicrobial peptides: effect on formation, metabolic activity and viability of Klebsiella pneumoniae biofilms” (Frontiers in Microbiology, 2025).

Common to all, as to type: cell-based, Klebsiella pneumoniae
Experiment [1] has as its system K. pneumoniae 42KC-108224-1. The experiment can be described thus: fluorescence assay on mature biofilms (SYTO 9 / propidium iodide). The protocol: (§1) The proportion of living and dead bacteria was determined using the fluorescence assay FilmTracer™ LIVE/DEAD biofilm viability kit (L10316, Life Technologies GmbH, Darmstadt, Germany). A bacterial count of 2 × 10^7 CFU/mL was inoculated in 50% BHI broth, 100 μL were added to a 96-well plate in duplicate and plates were incubated for 22 h at 37°C. Wells containing only BHI broth were used as blank. After incubation, the supernatant was discarded and plates were washed three times with sterile PBS. […] After incubation for 24 h at 37°C and washing three times with sterile PBS, 50 μL filter-sterilized water containing 0.15 μL each of SYTO™ 9 stain and propidium iodide stain was added to each well. Plates were incubated for 20 min at room temperature in the dark. The staining solution was discarded and the plates were washed three times with sterile PBS. The fluorescence intensity of the SYTO™ 9 stain (λex = 470 nm, λem = 500 nm) and the propidium iodide stain (λex = 490 nm, λem = 635 nm) were measured on a BioTek Synergy H1 microplate reader and corrected for the blank values. The percentage of fluorescence intensity was calculated based on the negative control. The SYTO™ 9/propidium iodide ratio was calculated. The experiment was conducted at least three times.

The subject of experiment [2] is K. pneumoniae IMT40061. Described as above. To be noted: 24 h treatment of mature biofilm; at very high concentrations. The protocol:
as §1

The test system of experiment [3] is K. pneumoniae 42KC-108224-1. The experiment is described as follows: crystal violet assay, biofilm formation upon AMP treatment. To be noted: 16 μg/mL; 22 h, 37°C, 50% BHI; mean, n ≥ 3. The method, then: (§2) To quantify biofilm formation, the crystal violet assay was done as described previously ([Sager et al., 2015]). Specifically, bacteria were grown in 10 mL BHI broth for 18 h at 37°C on a shaking platform (120 rpm). Subsequently 100 μL of a 1:100 dilution of this overnight culture in BHI was transferred to 96-well plates and incubated for 24 h at 37°C. Wells with BHI broth only were used as blank. Five replicates were investigated per strain. After incubation the suspension was discarded, plates were washed three times with tap water and air-dried. Subsequently, 100 μL of 1% crystal violet (T123.1, Th. Geyer GmbH & Co. KG, Renningen, Germany) in distilled water was added to each well and incubated for 15 min at room temperature before rinsing the plates four times with tap water and air-drying them again. One hundred μL of 99% ethanol were added to each well for 15 min at room temperature to dissolve the remaining crystal violet. Subsequently, the optical density at 540 nm (OD540) was measured using the BioTek Synergy H1 microplate reader to quantify biofilm mass remaining in the wells. OD values of the blank were subtracted from all the samples. Each experiment was conducted three times.
(§3) To determine the effect of the AMPs on biofilm formation of K. pneumoniae, a standardized bacterial suspension and serial dilutions of antimicrobial agents were incubated together as conducted for determination of planktonic growth. After incubation the crystal violet assay was performed as described above. The percentage of biofilm formation was calculated based on the growth control. The experiment was conducted at least three times.

The subject of experiment [4] is K. pneumoniae IMT40061. The experiment is described as above. To be noted: 16 μg/mL; 22 h, 37°C, 50% BHI; mean, n ≥ 3. The method, then:
as §2, §3

The subject of the next experiment is K. pneumoniae 17349. The experiment is described as follows: fluorescence assay on mature biofilms (SYTO 9 / propidium iodide). As to conditions: 24 h treatment of mature biofilm; concentration not given.

As for `CC[C@H]1OC(=O)[C@H](C)[C@@H](O[C@H]2C[C@@](C)(OC)[C@@H](O)[C@H](C)O2)[C@H](C)[C@@H](O[C@@H]2O[C@H](C)C[C@H](N(C)C)[C@H]2O)[C@](C)(O)C[C@@H](C)C(=O)[C@H](C)[C@@H](O)[C@]1(C)O` [Erythromycin], the “fluorescence intensity of propidium iodide in percent (dead cells)” value in experiment [1] (64 μg/mL in PBS, 24 h on 22 h-old biofilm, mean, n ≥ 3) came out at 64%. The “living biofilm mass (SYTO™ 9)” value in the experiment with K. pneumoniae IMT40061 [2] is given as 69%.
“VRLIVAVRIWRR-NH2 [compound 1018, Synthetic antimicrobial peptide]”: the “biofilm mass (crystal violet), percentage of the growth control” value in experiment [3] was 54%; with K. pneumoniae IMT40061 [4] it was 61%. Moreover, the “viable biofilm mass (SYTO™ 9)” value in the experiment on K. pneumoniae 17349 is recorded as “less than 30%”; in experiment [1] (24 h treatment of mature biofilm, strongest reduction, concentration not given) it was “less than 30%”.
